Literature values as cited in US12653891B2, “Stable glucocorticoid formulation” (AVM Biotechnology, LLC, priority 2018, dated 2026).
Counter-ions that a name gives are not always drawn. Like-named read-outs stand apart in the source and are kept apart here.

Legend:
[1] = not given; remark: listed apart in the source

Compound | Threshold (EMA/CHMP/334655/2013) (5 years up to 17 years and adults) | Threshold (EMA/CHMP/334655/2013) (29 days up to 4 years) | Amount that can accumulate and cause lactic acidosis, CNS depression, coma, hypoglycemia, seizures, hemolysis (IV) | Threshold (EMA/CHMP/334655/2013) (neonates up to 28 days) | Solubility in alcohol ([1]; alcohol) | Solubility in chloroform and ether ([1]; chloroform and ether) | Solubility in dioxan ([1]; dioxan)
CC(O)CO (stereo not shown) [Propylene glycol] | 500 mg/kg | 50 mg/kg | ≥ 3 g/day | 1 mg/kg |  |  | 
C[C@@H]1C[C@H]2[C@@H]3CCC4=CC(=O)C=C[C@]4(C)[C@@]3(F)[C@@H](O)C[C@]2(C)[C@@]1(O)C(=O)COP(=O)(O)O [Dexamethasone phosphate (as sodium), 9-fluoro-11b,17,21-trihydroxy-16a-methylpregna-1,4-diene-3,20-dione 21-(dihydrogen phosphate) Disodium Salt] |  |  |  |  | slightly soluble | practically insoluble | very slightly soluble
